Like-named read-outs stand apart in the source and are kept apart here.
Target: T1, HlyU (Vibrio vulnificus, UniProt A0A3Q0L222)
T1 sequence (A0A3Q0L222 1-98): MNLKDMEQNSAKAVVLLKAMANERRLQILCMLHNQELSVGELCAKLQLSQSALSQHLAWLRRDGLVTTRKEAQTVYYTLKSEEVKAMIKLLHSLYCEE
Assay: Vibrio reporter strain, pKK1305 (PrtxA-lux, activated by HlyU) in wild-type V. vulnificus
Type: cell-based
Settings: HlyU activity (RLU, DMSO = 100%), 30° C.
Procedure: Meanwhile, verification experiments using the Vibrio reporter strain were also conducted so as to exclude false positive results. It was identified that the effect of the compound was not limited only to E. coli using Vibrio vulnificus, each having the reporter plasmid (pZW1608) inhibited by HlyU, which was used for the E. coli reporter strain, and the plasmid (pKK1305) in which the promoter of the rtxA gene activated by HlyU is cloned in front of the bioluminescence operon.
The constructed wild-type Vibrio reporter strain was treated with sample compounds and cultured at 30° C., and cell growth and luminescence were measured in the same manner as the E. coli strain screening (FIG. 3 and FIG. 4).
In order to identify whether or not a specific structure of CM2660 has a significant effect on HlyU inhibition, the effect of HlyU inhibition by the compound CM2660 and derivatives thereof, “Compound Group I” (FIG. 5) was verified. For the purpose, the pKK1305 plasmid prepared in Example 1 was conjugated to the wild-type Vibrio vulnificus, and the Vibrio reporter strain (pKK1305 in wild-type V. vulnificus) thus produced was treated with various concentrations of the derivative compounds.
While culturing at 30° C., the growth of the reporter strain and the degree of bioluminescence thereof were measured in the same manner as in Example 1, and the RLU was calculated. The RLU of the DMSO-treated control group was expressed as 100% HlyU activity. HlyU activity was plotted according to the concentration of the derivative compound, and EC50 (half maximal effective concentration) was calculated using GraphPad Prism 7.0 (GraphPad Software, San Diego, Calif.) (FIG. 6, Table 2).

[1] = Compound Group II, read-out: EC50

| SMILES | EC50 [1] [µM] | EC50 (Compound Group I) [µM] |
| --- | --- | --- |
| CC(C)(C)OC(=O)CNC(=O)C#Cc1cccnc1 [LJ4532] | 52.4 |  |
| O=C(O)CNC(=O)C#Cc1ccccc1 [LJ4533] | 1140 |  |
| CC(C)(C)OC(=O)CNC(=O)C#Cc1ccc(N)cc1 [LJ4531] | 118 |  |
| O=C(CCc1ccccc1)Nc1scc2c1c(=O)oc1ccccc12 [LJ4458] |  | 875 |
| O=C(Nc1scc2c1c(=O)oc1ccccc12)c1ccccc1 [LJ4451] |  | 993 |
| O=C(O)C#Cc1ccc([N+](=O)[O-])cc1 [LJ4526] | 140 |  |
